Peptide text beside a SMILES is read from it.

This data set can be described thus: FBMN analysis of short peptides in small intestine contents and serum after oral DHG. The settings on record: for Peptide signal (feature intensity) in the small intestine, 30 min / Peptide signal (feature intensity) in the small intestine, 60 min / Peptide signal (feature intensity) in the small intestine, 120 min / Peptide signal (feature intensity) in the small intestine, 240 min: small intestine contents, C57 mice, FBMN feature intensity, peptides smaller than 690 Da; for Peptide signal (feature intensity) in the small intestine, 30 min: 30 min after oral DHG; for Peptide signal (feature intensity) in the small intestine, 60 min: 60 min after oral DHG; for Peptide signal (feature intensity) in the small intestine, 120 min: 120 min after oral DHG; for Peptide signal (feature intensity) in the small intestine, 240 min: 240 min after oral DHG; for time detected in serum (FBMN): time points 0.5-4 h after oral DHG.

`CC[C@H](C)[C@H](NC(=O)[C@@H](N)CC(N)=O)C(=O)O` [Asn-Ile] (H-Asn-Ile-OH): the “Peptide signal (feature intensity) in the small intestine, 30 min” value (“Peptide signal (feature intensity) … 30 min” below) is on record as 1.55E+06; the “Peptide signal (feature intensity) in the small intestine, 60 min” value (“Peptide signal (feature intensity) … 60 min” for short) was found to be 1.54E+06; the “Peptide signal (feature intensity) in the small intestine, 120 min” value (from here on “Peptide signal (feature intensity) … 120 min”) is reported as 4.19E+06; the “Peptide signal (feature intensity) in the small intestine, 240 min” value (shortened to “Peptide signal (feature intensity) … 240 min”) was determined as 2.54E+06.

Regarding `NC(=O)C[C@H](N)C(=O)N[C@@H](Cc1ccccc1)C(=O)O` [Asn-Phe] (H-Asn-Phe-OH), the “Peptide signal (feature intensity) … 30 min” value amounted to 2.16E+06; the “Peptide signal (feature intensity) … 60 min” value is 2.86E+06; the “Peptide signal (feature intensity) … 120 min” value amounted to 5.41E+06; the “Peptide signal (feature intensity) … 240 min” value is recorded as 4.96E+06.

On to `CC(C)C[C@H](NC(=O)[C@@H](N)CC(=O)O)C(=O)O` [Asp-Leu] (H-Asp-Leu-OH), for which the “Peptide signal (feature intensity) … 30 min” value is on record as 5.68E+06; the “Peptide signal (feature intensity) … 60 min” value was found to be 2.91E+06; the “Peptide signal (feature intensity) … 120 min” value is 7.39E+06; the “Peptide signal (feature intensity) … 240 min” value was 1.44E+07.

With `N[C@@H](CC(=O)O)C(=O)N[C@@H](Cc1ccccc1)C(=O)O` [Asp-Phe] (H-Asp-Phe-OH), the “time detected in serum (FBMN)” value is “only detected in the first hour”; the “Peptide signal (feature intensity) … 30 min” value was 3.76E+07; the “Peptide signal (feature intensity) … 60 min” value stood at 6.08E+07; the “Peptide signal (feature intensity) … 120 min” value is on record as 1.22E+08. Moreover, the “Peptide signal (feature intensity) … 240 min” value turned out to be 1.29E+08.

For `N[C@@H](CC(=O)O)C(=O)N1CCC[C@H]1C(=O)O` [Asp-Pro] (H-Asp-Pro-OH), the “Peptide signal (feature intensity) … 30 min” value is 0.00E+00; the “Peptide signal (feature intensity) … 60 min” value amounted to 7.32E+06; the “Peptide signal (feature intensity) … 120 min” value was determined as 1.15E+07; the “Peptide signal (feature intensity) … 240 min” value was 2.09E+07.

For `N[C@@H](CCC(=O)O)C(=O)N[C@@H](Cc1ccccc1)C(=O)O` [Glu-Phe], the “time detected in serum (FBMN)” value was at least 4 h; the “Peptide signal (feature intensity) … 30 min” value is 0.00E+00; the “Peptide signal (feature intensity) … 60 min” value is reported as 3.96E+06; the “Peptide signal (feature intensity) … 120 min” value worked out at 0.00E+00. Besides, the “Peptide signal (feature intensity) … 240 min” value is 1.66E+07.

On to `N[C@@H](CCC(=O)O)C(=O)N[C@@H](Cc1ccc(O)cc1)C(=O)O` [Glu-Tyr] (H-Glu-Tyr-OH), for which the “Peptide signal (feature intensity) … 30 min” value was 6.78E+05; the “Peptide signal (feature intensity) … 60 min” value came out at 4.16E+05; the “Peptide signal (feature intensity) … 120 min” value was determined as 0.00E+00; the “Peptide signal (feature intensity) … 240 min” value is 1.73E+06.

Regarding `CC(C)[C@H](NC(=O)[C@@H](N)CCC(=O)O)C(=O)N[C@@H](Cc1ccccc1)C(=O)O` [Glu-Val-Phe] (H-Glu-Val-Phe-OH), the “Peptide signal (feature intensity) … 30 min” value turned out to be 2.73E+05; the “Peptide signal (feature intensity) … 60 min” value came out at 1.52E+05; the “Peptide signal (feature intensity) … 120 min” value is 4.18E+05; the “Peptide signal (feature intensity) … 240 min” value is listed as 1.30E+06.

For the compound `CC[C@H](C)[C@H](NC(=O)CN)C(=O)O` [Gly-Ile] (H-Gly-Ile-OH), the “Peptide signal (feature intensity) … 30 min” value came to 1.17E+07; the “Peptide signal (feature intensity) … 60 min” value is reported as 1.01E+07; the “Peptide signal (feature intensity) … 120 min” value is reported as 0.00E+00; the “Peptide signal (feature intensity) … 240 min” value is recorded as 0.00E+00.

`CC(C)C[C@H](NC(=O)CN)C(=O)O` [Gly-Leu]: the “Peptide signal (feature intensity) … 30 min” value came out at 0.00E+00; the “Peptide signal (feature intensity) … 60 min” value came to 4.18E+07; the “Peptide signal (feature intensity) … 120 min” value is 0.00E+00; the “Peptide signal (feature intensity) … 240 min” value is 4.47E+07.

Regarding `CSCC[C@H](NC(=O)CN)C(=O)O` [Gly-Met], the “Peptide signal (feature intensity) … 30 min” value turned out to be 2.08E+06; the “Peptide signal (feature intensity) … 60 min” value was 7.49E+05; the “Peptide signal (feature intensity) … 120 min” value is given as 0.00E+00; the “Peptide signal (feature intensity) … 240 min” value worked out at 0.00E+00.

Regarding `NCC(=O)N[C@@H](Cc1ccc(O)cc1)C(=O)O` [Gly-Tyr] (H-Gly-Tyr-OH), the “Peptide signal (feature intensity) … 30 min” value was 0.00E+00; the “Peptide signal (feature intensity) … 60 min” value amounted to 5.39E+06; the “Peptide signal (feature intensity) … 120 min” value amounted to 0.00E+00; the “Peptide signal (feature intensity) … 240 min” value was 2.06E+07.

`CC(C)[C@H](NC(=O)CN)C(=O)O` [Gly-Val] (H-Gly-Val-OH): the “Peptide signal (feature intensity) … 30 min” value came to 0.00E+00; the “Peptide signal (feature intensity) … 60 min” value amounted to 3.54E+06; the “Peptide signal (feature intensity) … 120 min” value is recorded as 0.00E+00; the “Peptide signal (feature intensity) … 240 min” value was 2.70E+06.

Regarding `Nc1nc2c(ncn2[C@@H]2O[C@H](CO)[C@@H](O)[C@H]2O)c(=O)[nH]1` [Guanosine], the “Peptide signal (feature intensity) … 30 min” value was determined as 8.57E+06; the “Peptide signal (feature intensity) … 60 min” value is recorded as 2.01E+06; the “Peptide signal (feature intensity) … 120 min” value is 0.00E+00; the “Peptide signal (feature intensity) … 240 min” value was found to be 0.00E+00.

For `CC[C@H](C)[C@H](NC(=O)[C@@H](N)Cc1cnc[nH]1)C(=O)O` [His-Ile] (H-His-Ile-OH), the “Peptide signal (feature intensity) … 30 min” value is reported as 1.87E+07; the “Peptide signal (feature intensity) … 60 min” value was found to be 0.00E+00; the “Peptide signal (feature intensity) … 120 min” value turned out to be 2.72E+07; the “Peptide signal (feature intensity) … 240 min” value is 2.33E+07.

As for `N[C@@H](Cc1cnc[nH]1)C(=O)N1CCC[C@H]1C(=O)O` [His-Pro], the “Peptide signal (feature intensity) … 30 min” value was 4.26E+07; the “Peptide signal (feature intensity) … 60 min” value is on record as 5.51E+07; the “Peptide signal (feature intensity) … 120 min” value came out at 0.00E+00; the “Peptide signal (feature intensity) … 240 min” value is 8.49E+06.

`N[C@@H](Cc1cnc[nH]1)C(=O)N[C@@H](Cc1c[nH]c2ccccc12)C(=O)O` [His-Trp]: the “Peptide signal (feature intensity) … 30 min” value is listed as 1.94E+06; the “Peptide signal (feature intensity) … 60 min” value came out at 0.00E+00; the “Peptide signal (feature intensity) … 120 min” value was 1.97E+06; the “Peptide signal (feature intensity) … 240 min” value is on record as 5.05E+06.

As to `CC[C@H](C)[C@H](N)C(=O)N[C@@H](CC(N)=O)C(=O)O` [Ile-Asn] (H-Ile-Asn-OH), the “Peptide signal (feature intensity) … 30 min” value is listed as 7.93E+06; the “Peptide signal (feature intensity) … 60 min” value is 7.66E+06; the “Peptide signal (feature intensity) … 120 min” value is 0.00E+00; the “Peptide signal (feature intensity) … 240 min” value amounted to 0.00E+00.

`CC[C@H](C)[C@H](N)C(=O)N[C@@H](CCC(=O)O)C(=O)N[C@@H](CCCCN)C(=O)O` [Ile-Glu-Lys] (H-Ile-Glu-Lys-OH): the “Peptide signal (feature intensity) … 30 min” value is recorded as 0.00E+00; the “Peptide signal (feature intensity) … 60 min” value turned out to be 6.83E+05; the “Peptide signal (feature intensity) … 120 min” value stood at 0.00E+00; the “Peptide signal (feature intensity) … 240 min” value came out at 2.93E+06.

For the compound `CC[C@H](C)[C@H](N)C(=O)NCC(=O)N[C@H](C(=O)O)[C@@H](C)CC` [Ile-Gly-Ile] (H-Ile-Gly-Ile-OH), the “Peptide signal (feature intensity) … 30 min” value amounted to 0.00E+00; the “Peptide signal (feature intensity) … 60 min” value is listed as 2.90E+06; the “Peptide signal (feature intensity) … 120 min” value was 1.40E+06; the “Peptide signal (feature intensity) … 240 min” value came out at 1.45E+06.

For `CC[C@H](C)[C@H](N)C(=O)N[C@H](C(=O)N[C@@H](CCCCN)C(=O)O)[C@@H](C)CC` [Ile-Ile-Lys] (H-Ile-Ile-Lys-OH), the “Peptide signal (feature intensity) … 30 min” value worked out at 3.33E+05; the “Peptide signal (feature intensity) … 60 min” value stood at 2.00E+05; the “Peptide signal (feature intensity) … 120 min” value is recorded as 0.00E+00; the “Peptide signal (feature intensity) … 240 min” value turned out to be 0.00E+00.

For the compound `CC[C@H](C)[C@H](N)C(=O)N[C@@H](CC(C)C)C(=O)O` [Ile-Leu] (H-Ile-Leu-OH), the “Peptide signal (feature intensity) … 30 min” value came to 3.18E+06; the “Peptide signal (feature intensity) … 60 min” value was 3.36E+06; the “Peptide signal (feature intensity) … 120 min” value is 0.00E+00; the “Peptide signal (feature intensity) … 240 min” value came out at 0.00E+00.

With `CCC(C)C(N)C(=O)NC(CCCCN)C(=O)O` (stereo not drawn) [Ile-Lys] (H-Ile-Lys-OH; configuration not given here), the “Peptide signal (feature intensity) … 30 min” value is listed as 0.00E+00; the “Peptide signal (feature intensity) … 60 min” value is given as 0.00E+00; the “Peptide signal (feature intensity) … 120 min” value amounted to 0.00E+00; the “Peptide signal (feature intensity) … 240 min” value is reported as 0.00E+00.

Regarding `CCC(C)C(N)C(=O)N1CCCC1C(=O)O` (stereo not drawn) [Ile-Pro] (H-Ile-Pro-OH; configuration not given here), the “Peptide signal (feature intensity) … 30 min” value was 1.26E+07; the “Peptide signal (feature intensity) … 60 min” value was found to be 6.59E+06; the “Peptide signal (feature intensity) … 120 min” value is recorded as 1.48E+07; the “Peptide signal (feature intensity) … 240 min” value amounted to 2.26E+07.

On to `CCC(C)C(N)C(=O)NC(C(=O)O)C(C)O` (stereo not drawn) [Ile-Thr] (H-Ile-Thr-OH; configuration not given here), for which the “Peptide signal (feature intensity) … 30 min” value turned out to be 6.56E+06; the “Peptide signal (feature intensity) … 60 min” value was 7.13E+06; the “Peptide signal (feature intensity) … 120 min” value is given as 0.00E+00; the “Peptide signal (feature intensity) … 240 min” value was 0.00E+00.

The record behind these values is article PMC12616683, “In Vivo Atlas of Neuroprotective Cyclic Dipeptides Derived from Food Gelatin Using Peptidomics and Feature-Based Molecular Networking” (Journal of Agricultural and Food Chemistry, 2025).
